Broadly, the MIC is the smallest concentration in the dilution series that meets the test's criterion for growth inhibition. A high value points to a need for much substance.

What all share (type): cell-based
One test relates to Pseudomonas aeruginosa. Put plainly: MIC against Gram-negative bacteria: Pseudomonas aeruginosa. The conditions noted are these: 5×10^5 CFU/mL. An outline of the steps: (§1)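 Bacteria grown in LB at 37° C with shaking to McFarland 0.5, pelleted and resuspended in fresh LB, then seeded at 5×10^5 CFU/mL per well. Purified recombinant human EGF domain proteins were two-fold serially diluted in triplicate and plates shaken at 37° C, 175 rpm. MIC is the lowest protein concentration with no bacterial growth.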

A further test deals with E. coli BL21. Nature of the test: MIC against Gram-negative bacteria: E. coli BL21. Conditions: E. coli BL21, 5×10^5 CFU/mL. An outline of the steps: as §1
For a further test, the system named is Enterobacter cloacae. Put plainly: MIC against Gram-negative bacteria: Enterobacter cloacae. Conditions: 5×10^5 CFU/mL. In a few lines: as §1
The next test deals with Serratia marcescens. Nature of the test: MIC against Gram-negative bacteria: Serratia marcescens. The conditions noted are these: 5×10^5 CFU/mL. An outline of the steps: as §1
The next test has as its system Proteus vulgaris. Nature of the test: MIC against Gram-negative bacteria: Proteus vulgaris. The conditions noted are these: 5×10^5 CFU/mL. An outline of the steps: as §1
In another test the test system is E. coli DH5α. Put plainly: Antibacterial activity: MIC and growth curve against E. coli DH5α in 96-well plate. The conditions noted are these: minimal inhibitory concentration against E. coli DH5α; 96-well plate, 5×10^5 CFU/mL, 37° C., judged after 8 h. An outline of the steps:
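Log-phase bacteria (OD600 ~0.5) resuspended in LB at 5×10^5 CFU/mL, exposed to recombinant protein at 50, 25, 12.5 μg/mL final in triplicate, 37 °C shaking at 175 rpm. OD600 read every 30 min; MIC is lowest concentration showing no growth.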

Another test deals with Aeromonas hydrophila. Put plainly: MIC against Gram-negative bacteria: Aeromonas hydrophila. The conditions noted are these: 5×10^5 CFU/mL. An outline of the steps:
as §1

The test system of the next test is Klebsiella pneumonia. Nature of the test: MIC against Gram-negative bacteria: Klebsiella pneumonia. Conditions: 5×10^5 CFU/mL. An outline of the steps:
as §1

The test system of the next test is Proteus mirabilis. Nature of the test: MIC against Gram-negative bacteria: Proteus mirabilis. The conditions noted are these: 5×10^5 CFU/mL. In a few lines:
as §1

The test system of another test is Citrobacter diversus. Nature of the test: MIC against Gram-negative bacteria: Citrobacter diversus. The conditions noted are these: 5×10^5 CFU/mL. An outline of the steps:
as §1

The test system of the next test is Moraxella catarrhalis. Put plainly: MIC against Gram-negative bacteria: Moraxella catarrhalis. The conditions noted are these: 5×10^5 CFU/mL. An outline of the steps: as §1
Where [1] appears, read: P. aeruginosa, 10 h cultivation at 37° C.
[2] abbreviates: E. cloacae, 10 h cultivation at 37° C.
Setting [3] is: S. marcescens, 10 h cultivation at 37° C.
The mark [4] stands for this setting: P. vulgaris, 10 h cultivation at 37° C.
[5] abbreviates: A. hydrophila, 10 h cultivation at 37° C.
Setting [6] is: K. pneumonia, 10 h cultivation at 37° C.
Setting [7] is: P. mirabilis, 10 h cultivation at 37° C.
[8] abbreviates: C. diversus, 10 h cultivation at 37° C.
Setting [9] is: M. catarrhalis, 10 h cultivation at 37° C.
The mark [10] stands for this setting: Pseudomonas aeruginosa, 96-well plate, 37° C., 10 h.
Setting [11] is: Enterobacter cloacae, 96-well plate, 37° C., 10 h.
The mark [12] stands for this setting: Serratia marcescens, 96-well plate, 37° C., 10 h.
[13] abbreviates: Proteus vulgaris, 96-well plate, 37° C., 10 h.
[14] abbreviates: Aeromonas hydrophila, 96-well plate, 37° C., 10 h.
The mark [15] stands for this setting: Klebsiella pneumonia, 96-well plate, 37° C., 10 h.
[16] abbreviates: Proteus mirabilis, 96-well plate, 37° C., 10 h.
Setting [17] is: Citrobacter diversus, 96-well plate, 37° C., 10 h.
Setting [18] is: Moraxella catarrhalis, 96-well plate, 37° C., 10 h.

Take “PRT261 (CAHGHGGCSPHANCTKVAPGQRTCTCQDGYMGDGELC; listed as Homo sapiens)”: the “MIC (μg/mL) P. aeruginosa” value against Pseudomonas aeruginosa (setting [1]) was found to be 12.5 µg/mL. Moreover, the “MIC (μg/mL) E. coli BL21” value in the test on E. coli BL21 (10 h cultivation at 37° C.) stood at 12.5 µg/mL. Further, the “MIC (μg/mL) E. cloacae” value with Enterobacter cloacae (setting [2]) was determined as 50 µg/mL. Besides, the “MIC (μg/mL) S. marcescens” value with Serratia marcescens (setting [3]) stood at 50 µg/mL. Also, in the test with Proteus vulgaris (setting [4]), the “MIC (μg/mL) P. vulgaris” value is 12.5 µg/mL. The minimal inhibitory concentration (MIC) in the test on E. coli DH5α was 12.5 µg/mL. For the same substance, in the test on Aeromonas hydrophila (setting [5]), the “MIC (μg/mL) A. hydrophila” value worked out at 12.5 µg/mL. For the same substance, the “MIC (μg/mL) K. pneumonia” value in the test on Klebsiella pneumonia (setting [6]) worked out at 12.5 µg/mL. The “MIC (μg/mL) P. mirabilis” value in the test with Proteus mirabilis (setting [7]) is 25 µg/mL. The “MIC (μg/mL) C. diversus” value in the test on Citrobacter diversus (setting [8]) came out at 25 µg/mL. Besides, in the test with Moraxella catarrhalis (setting [9]), the “MIC (μg/mL) M. catarrhalis” value was 50 µg/mL.

Consider “PRT26 (CDSGPCKNSGFCSERWGSFSCDCPVGFGGKDCQ; listed as Homo sapiens)”, for which the “MIC (μg/mL) P. aeruginosa” value in the test with Pseudomonas aeruginosa (setting [10]) was found to be 25 µg/mL. Also, the “MIC (μg/mL) E. coli BL21” value in the test with E. coli BL21 (96-well plate, 37° C., 10 h) was found to be 12.5 µg/mL. In the test with Enterobacter cloacae (setting [11]), the “MIC (μg/mL) E. cloacae” value amounted to 25 µg/mL. Besides, in the test on Serratia marcescens (setting [12]), the “MIC (μg/mL) S. marcescens” value is 25 µg/mL. In addition, the “MIC (μg/mL) P. vulgaris” value in the test on Proteus vulgaris (setting [13]) amounted to 12.5 µg/mL. Further, the minimum inhibitory concentration (MIC) with E. coli DH5α is 25 µg/mL. Moreover, the “MIC (μg/mL) A. hydrophila” value with Aeromonas hydrophila (setting [14]) was 12.5 µg/mL. The “MIC (μg/mL) K. pneumonia” value in the test on Klebsiella pneumonia (setting [15]) was 12.5 µg/mL. The “MIC (μg/mL) P. mirabilis” value against Proteus mirabilis (setting [16]) was 25 µg/mL. Moreover, the “MIC (μg/mL) C. diversus” value with Citrobacter diversus (setting [17]) is 25 µg/mL. In addition, in the test with Moraxella catarrhalis (setting [18]), the “MIC (μg/mL) M. catarrhalis” value worked out at 12.5 µg/mL.

As to “PRT1461 (CNCNTSGTVDGDITCHQNSGQCKCKANVIGLRCDHCNFGFKFLRSFNDVGCEP; listed as Homo sapiens)”, the “MIC against P. aeruginosa” value in the test on Pseudomonas aeruginosa (Pseudomonas aeruginosa, 10 h cultivation at 37° C.) is 50 µg/mL. The “MIC against E. coli BL21” value against E. coli BL21 (10 h cultivation at 37° C.) turned out to be 12.5 µg/mL. For the same substance, the “MIC against E. cloacae” value with Enterobacter cloacae (Enterobacter cloacae, 10 h cultivation at 37° C.) worked out at 25 µg/mL. Also, in the test on Serratia marcescens (Serratia marcescens, 10 h cultivation at 37° C.), the “MIC against S. marcescens” value stood at 25 µg/mL. Also, in the test on Proteus vulgaris (Proteus vulgaris, 10 h cultivation at 37° C.), the “MIC against P. vulgaris” value came out at 12.5 µg/mL. Further, the MIC with E. coli DH5α was found to be 25 µg/mL. Moreover, the “MIC against A. hydrophila” value with Aeromonas hydrophila (Aeromonas hydrophila, 10 h cultivation at 37° C.) is 12.5 µg/mL. Further, in the test with Klebsiella pneumonia (Klebsiella pneumonia, 10 h cultivation at 37° C.), the “MIC against K. pneumonia” value amounted to 12.5 µg/mL. Further, in the test on Proteus mirabilis (Proteus mirabilis, 10 h cultivation at 37° C.), the “MIC against P. mirabilis” value came to 25 µg/mL. In the test with Citrobacter diversus (Citrobacter diversus, 10 h cultivation at 37° C.), the “MIC against C. diversus” value was determined as 25 µg/mL. In addition, the “MIC against M. catarrhalis” value against Moraxella catarrhalis (Moraxella catarrhalis, 10 h cultivation at 37° C.) came out at 12.5 µg/mL.

Turning to “PRT205 (SAHVCSQQCSGHGVCDSRNKCHCSPGYKPPNCQ; listed as Homo sapiens)”, the “MIC (μg/mL) P. aeruginosa” value with Pseudomonas aeruginosa (setting [1]) was found to be 12.5 µg/mL. Also, the “MIC (μg/mL) E. coli BL21” value in the test on E. coli BL21 (10 h cultivation at 37° C.) amounted to 12.5 µg/mL. Besides, the “MIC (μg/mL) E. cloacae” value in the test with Enterobacter cloacae (setting [2]) came out at 12.5 µg/mL. Moreover, in the test on Serratia marcescens (setting [3]), the “MIC (μg/mL) S. marcescens” value was determined as 12.5 µg/mL. Further, the “MIC (μg/mL) P. vulgaris” value against Proteus vulgaris (setting [4]) turned out to be 25 µg/mL. The minimal inhibitory concentration (MIC) against E. coli DH5α came to 12.5 µg/mL. The “MIC (μg/mL) A. hydrophila” value against Aeromonas hydrophila (setting [5]) was determined as 25 µg/mL. The “MIC (μg/mL) K. pneumonia” value in the test with Klebsiella pneumonia (setting [6]) amounted to 25 µg/mL. In the test on Proteus mirabilis (setting [7]), the “MIC (μg/mL) P. mirabilis” value is 12.5 µg/mL. Further, the “MIC (μg/mL) C. diversus” value against Citrobacter diversus (setting [8]) came out at 12.5 µg/mL. In addition, in the test with Moraxella catarrhalis (setting [9]), the “MIC (μg/mL) M. catarrhalis” value came to 25 µg/mL.

Turning to “PRT110 (DIDECASSNGTLCAHICINTLGSYRCECREGYIREDDGKTCT; listed as Homo sapiens)”, the “MIC (μg/mL) P. aeruginosa” value with Pseudomonas aeruginosa (setting [10]) worked out at 25 µg/mL. Besides, the “MIC (μg/mL) E. coli BL21” value against E. coli BL21 (96-well plate, 37° C., 10 h) was determined as 12.5 µg/mL. In addition, the “MIC (μg/mL) E. cloacae” value against Enterobacter cloacae (setting [11]) worked out at 12.5 µg/mL. Also, the “MIC (μg/mL) S. marcescens” value with Serratia marcescens (setting [12]) turned out to be 12.5 µg/mL. In addition, the “MIC (μg/mL) P. vulgaris” value against Proteus vulgaris (setting [13]) was 12.5 µg/mL. The MIC against E. coli DH5α was found to be 25 µg/mL. For the same substance, the “MIC (μg/mL) A. hydrophila” value against Aeromonas hydrophila (setting [14]) was 50 µg/mL. For the same substance, the “MIC (μg/mL) K. pneumonia” value in the test on Klebsiella pneumonia (setting [15]) stood at 50 µg/mL. The “MIC (μg/mL) P. mirabilis” value in the test on Proteus mirabilis (setting [16]) amounted to 12.5 µg/mL. In addition, the “MIC (μg/mL) C. diversus” value against Citrobacter diversus (setting [17]) stood at 12.5 µg/mL. In addition, the “MIC (μg/mL) M. catarrhalis” value in the test on Moraxella catarrhalis (setting [18]) is 50 µg/mL.

The record behind these values is patent publication US9833497B2, “Human originated EGF domain proteins and use of the same” (CHENGDU SOURCEBIO LIMITED-LIABILITY COMPANY, priority 2013, dated 2017).
